Laboratory results: paper PMC6664396, “A golden opportunity: benzofuranone modifications of aurones and their influence on optical properties, toxicity, and potential as dyes” (Beilstein Journal of Organic Chemistry, 2019)

Columns and labels:
[1] = system: Hep G2 human liver cancer cells; experiment: Hep G2 cytotoxicity assay (MTT); type: cell-based; parameters: Average % Inhibition: tested at 200 µM; conditions: for Hep G2 % inhibition: 200 μM concentration of compound, 3 days incubation, MTT readout; for % Inhibition: Hep G2 MTT absorbance relative to vehicle; for Average % Inhibition: average of Triplicates 1-3 (T1, T2, T3), Hep G2 MTT
Protocol: An initial screening of toxicity was conducted at a fairly high concentration (200 μM) on the present series of compounds using a standard HEP G2 inhibition assay (Table 1). Compared to a currently used yellow dye (tartrazine), the aurones are similar to more toxic. Within the aurone series, though, an interesting pair of trends can be observed. First, all hydroxylated aurones are comparatively more toxic, displaying >50% inhibition at 200 μM. Methyl groups are similarly mostly more toxic. For the halogens, however, location is fairly important, with the 6 or 7 position being much less toxic (similar to tartrazine) and dramatically better than the unsubstituted base compound 1, with the unexpected exception of 7-bromo compound 10. Whether this trend is general or not for aurone compounds is an interesting question for future study.
Hep G2 cytotoxicity assay
Hep G2 human liver cancer cells were cultured in phenol red Dulbecco’s
Modified Eagle Medium (DMEM) with 10% fetal bovine serum (FBS) and 1% Pen-strep (PSG) under 37°C and 5% CO2 atmospheric conditions. The cells were washed with phosphate buffered saline (PBS) and diluted with phenol red free DMEM to a concentration between 200,000 to 250,000 cells/mL. The cells we re distributed in a 96-well plate with each well containing 100 µL of the cell solution and were allowed to settle for 2 hours in the incubator. The cells were then treated with 200 µM of the aurones in DMSO and the known dyes in 10:90 (v:v) DMSO/ultrapure water in triplicates and were left in the incubator for 3 days. The vehicles were used as the negative controls (DMSO for the aurones and 10:90 DMSO:ultrapure water for the known dyes). 20 µL of 5 mg/mL MTT (3-(4,5-dimethylthiazol-2-yl)-2,5-diphenyltetrazolium bromide) was added to each well containing treated cells after the 3-day incubation period and was allowed to settle in the incubator for 3.5 more hours. Finally, the media was removed from the wells and replaced by 100 µL of DMSO to lyse the cells and dissolve the formazan crystals that were formed. The absorbance was then recorded on the SpectraMax M5 Multi -Mode Microplate Reader. The procedure was repeated two more times using different batches of cultured Hep G2 cells on different days. […]

[2] = UV–vis spectra in acetonitrile (λmax, extinction coefficient); type: physicochemical; parameters: λmax: unit: nm; conditions: for dissolution for ε determination: in CH3CN, printed in the ε column
Protocol: With the desired compounds in hand, their UV–visible spectra were recorded at concentrations between 29 and 44 μM in acetonitrile (Figure 3 and Table 1). While not all substituents were prepared at every position, some interesting trends were observed. Substitution at the 4-position whether halogen or hydroxy afforded essentially identical lambda maxima (390 nm), slighly red-shifted compared to the unsubstituted compound 1. On the other hand, hydroxy groups at the 6-position result in a significant blue shift of this lambda max by roughly 40 nm to around 338 nm, presumably due to their donating effect and conjugation with the carbonyl oxygen. […] On the other hand, substitution at the 7-position had virtually no effect, which is to be expected due to the lack of direct conjugation with the carbonyl as well as the only modest electronic effects of alkyl, chlorine, and bromine. In general, the substituent effects are all fairly modest and result in fairly moderate changes in the extinction coefficient (although hydroxy substitution does definitely increase this value by roughly 50%).

[3] = UV–vis spectra determined in CH3CN
[4] = supplement sheet Tabular ε Data, slope of linear equation, unit not given, in L mol⁻¹ cm⁻¹
[5] = supplement sheet Tabular ε Data, unit not given

| Compound | ε ([2]; UV–vis in CH3CN, at λmax) [L/mol/cm] | λmax [2, 3] [nm] | ε [2, 4] | λmax [2, 5] | dissolution for ε determination [2] | dissolution for ε determination ([2]; listed as 6OH7Me) | Hep G2 % inhibition [1] [%] | % Inhibition ([1]; Triplicate 1) [%] | % Inhibition ([1]; Triplicate 2) [%] | % Inhibition ([1]; Triplicate 3) [%] | Average % Inhibition [1] [%] |
| --- | --- | --- | --- | --- | --- | --- | --- | --- | --- | --- | --- |
| Cc1ccc(C=C2Oc3ccccc3C2=O)cc1 [Compound 1] | 20208 | 382 | 20208 | 382 | – | – | 86.27 ± 1.09 | 88.03 | 81.21 | 89.58 | – |
| Cc1ccc(/C=C2\Oc3ccc(F)cc3C2=O)cc1 [Compound 2] | 17188 | 394 | 17188 | 394 | – | – | 87.01 ± 0.56 | 90.35 | 81.77 | 88.89 | – |
| Cc1ccc(/C=C2\Oc3cc(F)ccc3C2=O)cc1 [Compound 3] | 24252 | 370 | 24252 | 370 | – | – | 3.52 ± 3.39 | 5.64 | 13.37 | -8.44 | – |
| Cc1ccc(/C=C2\Oc3cccc(Cl)c3C2=O)cc1 [Compound 4] | 17129 | 390 | 17129 | 390 | – | – | – | 24.72 | 7.19 | 13.49 | 15.13 |
| Cc1ccc(/C=C2\Oc3ccc(Cl)cc3C2=O)cc1 [Compound 5] | 16551 | 394 | 16551 | 394 | – | – | 72.68 ± 2.77 | 72.62 | 63.25 | 82.18 | – |
| Cc1ccc(/C=C2\Oc3cc(Cl)ccc3C2=O)cc1 [Compound 6] | 23187 | 378 | 23187 | 378 | – | – | 25.07 ± 18.77 | 19.67 | 34.31 | 21.23 | – |
| Cc1ccc(/C=C2\Oc3c(Cl)cccc3C2=O)cc1 [Compound 7] | 17247 | 386 | 17247 | 386 | – | – | 3.64 ± 3.64 | 7.01 | -3.78 | 7.69 | – |
| Cc1ccc(C=C2Oc3ccc(Br)cc3C2=O)cc1 [Compound 8] | 15112 | 394 | 15112 | 394 | – | – | 59.35 ± 1.25 | 65.35 | 37.11 | 75.61 | – |
| Cc1ccc(/C=C2\Oc3cc(Br)ccc3C2=O)cc1 [Compound 9] | 22435 | 378 | 22435 | 378 | – | – | 75.22 ± 3.84 | 77.38 | 72.50 | 75.78 | – |
| Cc1ccc(/C=C2\Oc3c(Br)cccc3C2=O)cc1 [Compound 10] | 22250 | 390 | 22250 | 390 | – | – | – | 8.16 | -1.79 | 11.18 | 5.85 |
| O=C([O-])C1=NN(c2ccc(S(=O)(=O)[O-])cc2)C(=O)C1N=Nc1ccc(S(=O)(=O)[O-])cc1.[Na+].[Na+].[Na+] (stereo not drawn) [tartrazine, reference compound] | – | – | – | – | – | – | 6.81 | 14.72 | 3.80 | 1.93 | – |
| Alizarin Y [reference compound] | – | – | – | – | – | – | -54.45 | -50.46 | -60.58 | -52.30 | – |

Further lines, with some results ahead:

| ε ([2]; UV–vis in CH3CN, at λmax) [L/mol/cm] | λmax [2, 3] [nm] | ε [2, 4] | λmax [2, 5] | dissolution for ε determination [2] | dissolution for ε determination ([2]; listed as 6OH7Me) | Compound | Hep G2 % inhibition [1] [%] | % Inhibition ([1]; Triplicate 1) [%] | % Inhibition ([1]; Triplicate 2) [%] | % Inhibition ([1]; Triplicate 3) [%] | Average % Inhibition [1] [%] |
| --- | --- | --- | --- | --- | --- | --- | --- | --- | --- | --- | --- |
| 15470 | 390 | 15470 | 390 | – | – | Cc1ccc(/C=C2\Oc3ccc(C)cc3C2=O)cc1 [Compound 11] | 80.88 ± 1.38 | 79.75 | 75.21 | 87.68 | – |
| 19522 | 382 | 19522 | 382 | – | – | Cc1ccc(/C=C2\Oc3cc(C)c(C)cc3C2=O)cc1 [Compound 12] | 24.95 ± 2.23 | 30.58 | 22.83 | 21.44 | – |
| 18380 | 386 | 18380 | 386 | – | – | Cc1ccc(/C=C2\Oc3c(C)cccc3C2=O)cc1 [Compound 13] | 87.54 ± 1.61 | 89.87 | 82.08 | 90.66 | – |
| 33050 | 338 | 33050 | 338 | – | – | Cc1ccc(/C=C2\Oc3cc(O)ccc3C2=O)cc1 [Compound 14] | 66.79 ± 3.04 | 60.23 | 53.07 | 87.07 | – |
| 22664 | 390 | 22664 | 390 | – | – | Cc1ccc(/C=C2\Oc3cccc(O)c3C2=O)cc1 [Compound 15] | 54.04 ± 4.65 | 62.56 | 40.66 | 58.91 | – |
| 30445 | 338 | 30445 | 338 | – | – | Cc1ccc(C=C2Oc3cc(O)cc(C)c3C2=O)cc1 [Compound 16] | 67.76 ± 6.06 | 77.36 | 54.17 | 71.74 | – |
| – | 336 | – | 336 | will not dissolve completely | will not dissolve | Cc1ccc(/C=C2\Oc3c(ccc(O)c3C)C2=O)cc1 [Compound 17] | 78.58 ± 7.11 | 77.81 | 74.71 | 83.21 | – |
